Laboratory results taken from patent publication US9770423B2, “Modulation sAPP, sAAPα and BDNF levels in individuals diagnosed with FXS and ASD” (Indiana University Research and Technology Corp., priority 2012, dated 2017).

Tests used:
[1] = system: youth with autistic disorder (idiopathic ASD); assay: 12-week single-blind placebo lead-in trial of acamprosate in youth with autistic disorder: behavioral outcome measures; format: in vivo, human
Description: One study was a 12-week single-blind, placebo-controlled trial of acamprosate in 12 youths with autistic disorder was conducted. The primary outcome measured was the Clinical Global Impression Improvement (CGI-I) scale with several additional behavioral secondary outcome measures employed. In this study, secreted amyloid precursor protein (sAPP) was measured pre- and post acamprosate treatment as blood biomarker assay Result: Twelve subjects (mean age=10.4 yrs.) entered the study and nine subjects completed a two week placebo lead-in and entered active treatment (mean final dose=1,073 mg/day). Six of nine (67%) subjects receiving acamprosate were judged treatment responders with a CGI-I score of 1 “very much improved” or 2 “much improved”. […] Among secondary outcome measures analyzed, significant acamprosate-associated improvement was noted on measures of social behavior and hyperactivity. Acamprosate use was also associated with reductions in sAPP levels.
The first project enrolled 12 youth aged 5 to 17 years with fragile X syndrome and comorbid ASD in a 10-week open-label trial of acamprosate. The second project enrolled 12 youth aged 5 to 17 years diagnosed with idiopathic ASD in a 12-week single-blind placebo lead-in study of acamprosate. In both projects, concomitant dosing of psychotropic drugs remained stable throughout study. In each project, pre- and post-acamprosate treatment plasma levels of sAPP total and sAPPα were obtained. All APP assay samples were collected, chilled, and walked within 2 hours of blood draw to the lab for analysis. Plasma sAPP total and sAPPα were determined in […] using the ELISA kit obtained from Immuno Biological Laboratories (IBL, Gumma, Japan). The ELISA kit is validated to measure levels of sAPPα in human samples and able to detect as low as 0.09 ng/ml of sAPPα in a typical sample, with only 0.3% cross-reactivity to sAPPβ. Levels of sAPP total and sAPPα in plasma were reported in nanograms per milliliter (ng/mL). Statistical analysis of pre- and post-acamprosate sAPP total and sAPPα levels were conducted using paired T-tests. Finally an exploratory post-hoc analysis of potential correlation between percent change in sAPP total or sAPPα and percent change in scores on the Aberrant Behavior Checklist Social Withdrawal/Lethargy subscale (ABC-SW) was conducted. The ABC-SW measures social impairment which is a core symptom domain of ASD. Post-hoc analysis was done with Spearman correlation calculations. All data was analyzed in IBM SPSS Version 20.
A 12-week single-blind, placebo-controlled trial of the effect of acamprosate in the treatment of 12 youths with autistic disorder aged 5 to 17 years was carried out. In order to pilot test use of acamprosate in youth with autism targeting core social impairment, was conducted. All subjects and their family members were blinded to treatment status. All subjects participated in a 2 week placebo-lead-in phase prior to 10 weeks of treatment with acamprosate. For this project, enteric coated commercially available 333 mg acamprosate pills were over-encapsulated and identical matching placebo manufactured for the project. Placebo-responders, defined by a Clinical Global Impressions Improvement scale (CGI-I) score of 1 “very much improved” or 2 “much improved” (ratings anchored to core social deficits) at week 2 were asked to exit the study. During active treatment with acamprosate, dosing was increased in 333 mg increments per week over the first six weeks of active treatment to a maximum dose of 1,332 mg/day (weight<5 60 kg) or 1,998 mg/day (weight>60 kg). During the final four weeks of active drug treatment, subjects were maintained on a stable highest tolerated (optimal) dose. The primary outcome measure was the clinician-rated CGI-I anchored to symptoms of social impairment. […]

[2] = system: drinking-in-the-dark mouse model; settings: cited from earlier work
[3] = safety measures and adverse effects in the FXS open-label trial; format: in vivo, human
Description: Safety assessment and monitoring began at screen when all subjects underwent a medical history, physical examination, and full psychiatric interview. A physical examination was also completed at end point. Vital signs, including height and weight, were obtained at each study visit. At screen, genetic testing for FXS was obtained if record of molecular testing utilizing Southern Blot and PCR was not available. At screen, week 6, and endpoint, laboratory tests of blood and urine, including CBC with differential and platelets, electrolyte panel, liver associated enzymes, lipid panel, and urine pregnancy test (in females) were obtained. An electrocardiogram was also obtained at screen and endpoint.
The pilot study ran for 10 weeks. Safety lab screens were carried out at weeks 6 and 10. Physiologic parameters measured during the safety screens were as follows: vital signs, LFTs, electrolyte panels, CBC with diff/plts, lipid panel, glucose, urinalysis and ECG.
In-person clinical visits were scheduled for every two weeks. Telephonic evaluations were carried out at weeks 1, 3, and 5. Each subject was evaluated for side effects at every interaction with the practitioner.

[4] = caregiver reported, 12 youth with FXS

CC(=O)NCCCS(=O)(=O)O.[Ca] [acamprosate, Calcium Acetylhomotaurine]
CGI-S at endpoint ([1]; autistic disorder, baseline 4.22+/-0.4, p=0.013): 3.7+/−0.5
ABC Lethargy/Social Withdrawal subscale (ABC-SW) at endpoint ([1]; autistic disorder, baseline 14.1+/-8.5, p=0.019): 10.0+/−8.4
ABC Hyperactivity subscale at endpoint ([1]; autistic disorder, baseline 25.4+/-12.6, p=0.005): 16.6+/−12.4
ADHD-RS at endpoint ([1]; autistic disorder, baseline 29.5+/-10.4, p=0.002): 20.75+/−9.7
SRS total raw score at endpoint ([1]; autistic disorder, baseline 107+/-28, p=0.002): 91.4+/−30
mean CGI-I at last visit ([1]; nine subjects, last observation carried forward): 2
treatment responders, number of subjects ([1]; of 9 youth with idiopathic ASD): 6
treatment responders (CGI-I score of 1 or 2) ([1]; six of nine subjects receiving acamprosate, autistic disorder, mean final dose 1,073 mg/day): 67%
alcohol intake [2]: reduced alcohol intake
Increased body rocking, mild (number of patients) ([3]; 12 youth with FXS): 1
ECG including QTc interval ([3]; FXS trial): no change in the QTc interval
laboratory measures: lipids, electrolytes, liver function tests, blood counts ([3]; FXS trial): no clinically significant or mean changes
weight, pulse, or blood pressure ([3]; FXS trial): No clinically significant changes
overall tolerability ([3]; FXS trial, 12 subjects): well tolerated overall, with no severe or serious adverse effects
Constipation, mild (n subjects) [3, 4]: 1
Diarrhea, mild (n subjects) [3, 4]: 1
Increased Anxiety, mild (n subjects) [3, 4]: 1
Increased Repetitive Behavior, mild (n subjects) [3, 4]: 2
Insomnia, mild (n subjects) [3, 4]: 1
Irritability, mild (n subjects) [3, 4]: 4
Nightmares, mild (n subjects) [3, 4]: 1
Rhinitis, mild (n subjects) [3, 4]: 1
Urinary Urgency, mild (n subjects) [3, 4]: 1
subjects who experienced a mild adverse event ([3]; nine of 12 subjects, FXS trial): 75%
